Test results taken from US20120323164A1, “PHOTODYNAMIC THERAPY WITH PHTHALOCYANINES AND RADICAL SOURCES” (Case Western Reserve University, priority 2011, published 2012).
Values joined by “and” are separate entries in the source; they are usually repeats but may differ in a detail not shown here. Equal values may be shown once.

Key:
[1] = Photodecomposition of phthalocyanines in toluene under white light, no added radical source; conditions: for photostability (in words): white light, toluene
Procedure: The distance between the cuvette face and the lamp filament was 30 cm. Determination of the beam intensity at the cuvette face was made with a powermeter (Powermax, pm10, Coherent, Santa Clara, Calif.). The beam intensity was checked before each measurement.
Solutions for the photodecomposition experiments were prepared as follows. […] This assumption was justified on the basis that all of the silicon phthalocyanines studied contained simple, unsubstituted phthalocyanine rings. The extinction coefficients of the aluminum phthalocyanines were assumed to be 2.3×10^5, the extinction coefficient of AlPcOSi(CH3)2(CH2)3N(CH3)2, Pc 1.
The absorbance of the Q band of the solution, A, was determined with a spectrophotometer (Lambda 25, Perkin Elmer, Shelton, Conn.; fused silica cuvettes, 1.00 cm, 3.5 mL, Fisher Scientific). From A, ε, the cuvette path length, b, and Beer's law, the concentration of the solution, c, was determined. The solution was then diluted with toluene to a concentration of 9.2 μM. To verify that this was the concentration of the solution, its absorbance was measured again.
In a typical determination, the solution (3.00 mL) was placed in a cuvette (1.00 cm, 3.5 mL, Fisher Scientific, Pittsburgh, Pa.) and its absorbance was measured with the spectrometer (Lambda 25) before irradiation and at 2, 4, 6 and 8 h.
where A0 is the absorbance of the solution at time 0, and At is the absorbance at time t.

[2] = Photodecomposition of Al and Si phthalocyanines in toluene in the presence of squalene under white light; format: physicochemical; conditions: toluene ~9 μM, squalene 1:1000 mole ratio, white light 1.2 kJ/s/m^2, air
Procedure: The beam intensity was checked before each measurement.
Solutions for the photodecomposition experiments were prepared as follows.

[3] = time 0 h, toluene ~9 μM, no added alkene, white light 1.2 kJ/s/m^2
[4] = time 2 h, radiation 86 kJ/mol × 10^−6, toluene ~9 μM, no added alkene, white light 1.2 kJ/s/m^2
[5] = time 4 h, radiation 172 kJ/mol × 10^−6, toluene ~9 μM, no added alkene, white light 1.2 kJ/s/m^2
[6] = time 6 h, radiation 258 kJ/mol × 10^−6, toluene ~9 μM, no added alkene, white light 1.2 kJ/s/m^2
[7] = time 8 h, radiation 344 kJ/mol × 10^−6, toluene ~9 μM, no added alkene, white light 1.2 kJ/s/m^2
[8] = time 2 h, radiation 86 kJ/mol × 10^−6
[9] = time 4 h, radiation 172 kJ/mol × 10^−6
[10] = time 6 h, radiation 258 kJ/mol × 10^−6
[11] = time 8 h, radiation 344 kJ/mol × 10^−6

Compound | decomp (%) [1, 3] [%] | decomp (%) [1, 4] | decomp (%) [1, 5] | decomp (%) [1, 6] [%] | decomp (%) [1, 7] [%] | decomp (%) ([2]; time 0 h) | decomp (%) [2, 8] [%] | decomp (%) [2, 9] [%] | decomp (%) [2, 10] [%] | decomp (%) [2, 11] [%] | also measured
CN(C)CCC[Si](C)(C)O[Si]1(O[Si](C)(C)CCCN(C)C)n2c3c4ccccc4c2N=C2N=C(N=c4c5ccccc5c(n41)=NC1=NC(=N3)c3ccccc31)c1ccccc12 [Pc 12, SiPc[OSi(CH3)2(CH2)3N(CH3)2]2] | 0 | 19% and 18% | 20% and 19% | 21 | 21 | – | – | – | – | – | –
C[Si](C)(CCCI)O[Si]1(O)n2c3c4ccccc4c2N=C2N=C(N=c4c5ccccc5c(n41)=NC1=NC(=N3)c3ccccc31)c1ccccc12 (stereo not drawn) [Pc 58, SiPc[OSiMe2(CH2)3I](OH)] | – | – | – | – | – | 0 | 12 | 23 | 34 | 44 | –
CN(C)CCCCCC[Si](C)(C)O[Si]1(O[Si](C)(C)CCCCCCN(C)C)n2c3c4ccccc4c2N=C2N=C(N=c4c5ccccc5c(n41)=NC1=NC(=N3)c3ccccc31)c1ccccc12 [Pc 85, SiPc[OSi(CH3)2(CH2)6N(CH3)2]2] | 0 | 5% | 5% | 5 | 5 | – | – | – | – | – | –
COCCC[Si](C)(C)O[Si]1(O[Si](C)(C)CCCOC)n2c3c4ccccc4c2N=C2N=C(N=c4c5ccccc5c(n41)=NC1=NC(=N3)c3ccccc31)c1ccccc12 [Pc 92, SiPc[OSi(CH3)2(CH2)3OCH3]2] | 0 | 1% | 1% | 1 | 1 | – | – | – | – | – | –
CSCCC[Si](C)(C)O[Si]1(O[Si](C)(C)CCCSC)n2c3c4ccccc4c2N=C2N=C(N=c4c5ccccc5c(n41)=NC1=NC(=N3)c3ccccc31)c1ccccc12 [Pc 97, SiPc[OSi(CH3)2(CH2)3SCH3]2] | 0 | 41% | 42% | 43 | 44 | – | – | – | – | – | –
C[Si](C)(CCCN(c1ccccc1)c1ccccc1)O[Si]1(O[Si](C)(C)CCCN(c2ccccc2)c2ccccc2)n2c3c4ccccc4c2N=C2N=C(N=c4c5ccccc5c(n41)=NC1=NC(=N3)c3ccccc31)c1ccccc12 [Pc 159, SiPc[OSi(CH3)2(CH2)3N(C6H5)2]2] | 0 | 0% | 0% | 0 | 1 | – | – | – | – | – | photostability (in words) ([1]; no added alkene): quite stable under light
CCCCCC[Si](CCCCCC)(CCCCCC)O[Si]1(O[Si](CCCCCC)(CCCCCC)CCCCCC)n2c3c4ccccc4c2N=C2N=C(N=c4c5ccccc5c(n41)=NC1=NC(=N3)c3ccccc31)c1ccccc12 [Pc 162, SiPc(OSiHx3)2] | – | – | – | – | – | 0 | 9 | 14 | 20 | 26 | –
CCCCCC[Si](CCCCCC)(CCCCCC)O[Si]1(O)n2c3c4ccccc4c2N=C2N=C(N=c4c5ccccc5c(n41)=NC1=NC(=N3)c3ccccc31)c1ccccc12 (stereo not drawn) [Pc 252, SiPc(OSiHx3)(OH)] | – | – | – | – | – | 0 | 16 | 26 | 34 | 42 | –
C=CCCCC[Si](C)(C)O[Si]1(O[Si](C)(C)CCCCC=C)n2c3c4ccccc4c2N=C2N=C(N=c4c5ccccc5c(n41)=NC1=NC(=N3)c3ccccc31)c1ccccc12 [Pc 270, SiPc[OSi(CH3)2(CH2)4CH═CH2]2] | 0 | 1% | 2% | 2 | 3 | – | – | – | – | – | –
C=CC[Si](C)(C)O[Si]1(O[Si](C)(C)CC=C)n2c3c4ccccc4c2N=C2N=C(N=c4c5ccccc5c(n41)=NC1=NC(=N3)c3ccccc31)c1ccccc12 [Pc 271, SiPc[OSi(CH3)2CH2CH═CH2]2] | 0 | 6% | 10% | 14 | 16 | – | – | – | – | – | –
C[Si](C)(C)O[Si]1(O[Si](C)(C)C)n2c3c4ccccc4c2N=C2N=C(N=c4c5ccccc5c(n41)=NC1=NC(=N3)c3ccccc31)c1ccccc12 [Pc 280, SiPc(OSiMe3)2] | – | – | – | – | – | 0 | 11 | 19 | 27 | 36 | –
CC[Si](CC)(CC)O[Si]1(O[Si](CC)(CC)CC)n2c3c4ccccc4c2N=C2N=C(N=c4c5ccccc5c(n41)=NC1=NC(=N3)c3ccccc31)c1ccccc12 [Pc 281, SiPc(OSiEt3)2] | – | – | – | – | – | 0 | 5 | 9 | 13 | 17 | –
CCC[Si](CCC)(CCC)O[Si]1(O[Si](CCC)(CCC)CCC)n2c3c4ccccc4c2N=C2N=C(N=c4c5ccccc5c(n41)=NC1=NC(=N3)c3ccccc31)c1ccccc12 [Pc 282, SiPc(OSiPr3)2] | – | – | – | – | – | 0 | 3 | 4 | 6 | 7 | –
C[SiH2]O[Si]1(O[SiH2]C)n2c3c4ccccc4c2N=C2N=C(N=c4c5ccccc5c(n41)=NC1=NC(=N3)c3ccccc31)c1ccccc12 (stereo not drawn) [Pc 283, SiPc(OSiH2Me)2] | – | – | – | – | – | 0 | 24 | 44 | 63 | 77 | –
CCC[Si](CCC)(CCC)[O][Al]1[n]2c3c4ccccc4c2N=C2N=C(N=c4c5ccccc5c([n]41)=NC1=NC(=N3)c3ccccc31)c1ccccc12 [Pc 285, AlPcOSiPr3] | – | – | – | – | – | 0 | 8 | 16 | 23 | 30 | –
CCCCCC[Si](CCCCCC)(CCCCCC)[O][Al]1[n]2c3c4ccccc4c2N=c2c4ccccc4c([n]21)=NC1=NC(=NC2=NC(=N3)c3ccccc32)c2ccccc21 [Pc 286, AlPcOSiHx3] | – | – | – | – | – | 0 | 10 | 17 | 23 | 29 | –
CCCCCCCCCCCCCCCCCC(=O)O.CCCCCCCCCCCCCCCCCC(=O)O.CN(C)CCC[Si](C)(C)O[Si]1(O[Si](C)(C)CCCN(C)C)n2c3c4ccccc4c2N=C2N=C(N=c4c5ccccc5c(n41)=NC1=NC(=N3)c3ccccc31)c1ccccc12 [Pc 287, SiPc[OSi(CH3)2(CH2)3NH(CH3)2]2^2+[OC(O)(CH2)17CH3]2^−] | 0 | 19% | 20% | 21 | 21 | – | – | – | – | – | –
CC1=C(/C=C/C(C)=C/C=C/C(C)=C/C(=O)O[Si]2(OC(=O)/C=C(C)/C=C/C=C(C)/C=C/C3=C(C)CCCC3(C)C)n3c4c5ccccc5c3N=C3N=C(N=c5c6ccccc6c(n52)=NC2=NC(=N4)c4ccccc42)c2ccccc23)C(C)(C)CCC1 (stereo not drawn) [Pc 301, SiPc[OC(O)(CH═C(CH3)CH═CH)2C6H6(CH3)3]2] | 0 | 19% | 25% | 28 | 32 | – | – | – | – | – | –
AlPcOSi(CH3)2(CH2)3N(CH3)2 [Pc 1] | 0 | 27% | 39% | 46 | 49 | – | – | – | – | – | photostability (in words) ([1]; no added alkene): low photostability
SiPc[OC(O)(CH2)3(CH2CH═CH)3(CH2)4CH3]2 [Pc 298] | – | – | – | – | – | – | – | – | – | – | decomp (%) [1]: 0 12 21 27 33%; decomposition rate relative to bis(α-linolenoxy)silicon phthalocyanine [1]: approximately twice as fast
SiPc[OC(O)(CH2)6(CH2CH═CH)3CH2CH3]z [Pc 297] | – | – | – | – | – | – | – | – | – | – | decomp (%) [1]: 0 3 5 6 9%
SiPc[OC(O)(CH2)16CH3]2 [Pc 294] | 0 | 1% | 1% | 1 | 2 | – | – | – | – | – | –
SiPc[OCH2CH═C(CH3)(CH2)2CH═C(CH3)2]2 [Pc 302] | 0 | 19% | 60% | 74 | 81 | – | – | – | – | – | stability in the dark ([1]; in the dark): stable in the dark
